Results as given in patent US8420675B2, “Aminotetrahydroindazoloacetic acids” (Hoffmann-La Roche Inc., priority 2008, dated 2013).

Molecular target: T1, human CRTH2 (Homo sapiens, UniProt Q9Y5Y4)
T1 construct: expressed in transfected cells
T1 sequence (Q9Y5Y4 1-395): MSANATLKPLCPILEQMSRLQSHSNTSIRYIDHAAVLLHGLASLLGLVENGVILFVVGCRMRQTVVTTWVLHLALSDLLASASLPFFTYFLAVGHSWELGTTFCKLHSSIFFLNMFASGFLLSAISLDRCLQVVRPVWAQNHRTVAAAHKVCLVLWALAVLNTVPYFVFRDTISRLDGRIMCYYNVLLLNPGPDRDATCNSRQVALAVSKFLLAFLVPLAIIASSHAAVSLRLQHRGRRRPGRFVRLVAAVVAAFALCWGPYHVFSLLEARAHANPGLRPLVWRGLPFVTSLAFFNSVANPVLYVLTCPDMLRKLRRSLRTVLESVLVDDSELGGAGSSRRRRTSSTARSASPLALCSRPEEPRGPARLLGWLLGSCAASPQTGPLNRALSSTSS
Test: Human CRTH2 Receptor Binding Assay (whole cell, [3H]ramatroban competition)
Conditions: CHO-K1 cells expressing human CRTH2 and G-alpha16; 20 nM [3H]ramatroban; 1 hour, room temperature
Description: A whole cell receptor binding assay using [^3H]ramatroban as the competing radioactive ligand was employed to evaluate the compound binding activity to human CRTH2. The radioactive ligand [^3H]ramatroban was synthesized according to Sugimoto et. al. (Eur. J. Pharmacol. 524, 30-37, 2005) to a specific activity of 42 Ci/mmol.
A cell line stably expressing human CRTH2 was established by transfecting CHO-K1 cells with two mammalian expression vectors that harbored human CRTH2 and G-alpha16 cDNAs, respectively, using FuGene® 6 transfection reagent (from Roche). Stable clones expressing CRTH2 were selected by staining each clone with BM16 (BD Pharmingen™ from BD Biosciences, a division of Becton, Dickinson and Company), which is a rat monoclonal antibody to human CRTH2. The cells were maintained as monolayer cultures in Ham's F-12 medium containing 10% fetal bovine serum, 100 units/mL penicillin, 100 μg/mL streptomycin, 2 mM glutamine, 0.5 mg/mL G418 (geneticin) for CRTH2, and 0.2 mg/mL hygromycin-B (for G-alpha 16). For whole cell receptor binding assay, the monolayer cells were rinsed once with PBS (phosphate buffered saline), dissociated using ethylenediaminetetraacetate (Versene™ EDTA Lonza Inc.), and suspended in PBS containing 10 mM MgCl2 and 0.06% BSA (bovine serum albumin) at 1.5×10^6 cells/mL.
The binding reactions (0.2 mL) were performed in 96-well plates at room temperature in PBS containing 1.5×10^5 cells, 10 mM MgCl2, 0.06% BSA, 20 nM [^3H]ramatroban, and test compound at various concentrations. After 1 hour of binding reactions, the cells were harvested on GF™/B filter microplates (microtiter plates with embedded glass fiber from PerkinElmer, Inc.) and washed 5 times with PBS using a Filtermate™ Harvester (a cell harvester that harvests and washes cells from microplates from PerkinElmer, Inc.). The radioactivities bound to the cells were determined using a microplate scintillation counter (TopCount® NXT, from PerkinElmer, Inc.) after adding 50 μL of Microscint™ 20 scintillation fluid (from PerkinElmer, Inc.) to each well of the filter plates. The radioactivity from non-specific binding was determined by replacing compound with 10 μM of 15(R)-15-methyl PGD2 (from Cayman Chemical Company) in the reaction mixtures. The radioactivity bound to the cells in the absence of compound (total binding) was determined by replacing compound with 0.25% of DMSO (dimethyl sulfoxide) in the reaction mixture. Specific binding data were obtained by subtracting the radioactivity of non-specific binding from each binding data.
The IC50 value is defined as the concentration of the tested compound that is required for 50% inhibition of total specific binding. In order to calculate the IC50 value, the percent inhibition data were determined for 7 concentrations for each compound. The percent inhibition for a compound at each concentration was calculated according to the following formula, [1-(specific binding in the presence of compound)/(total specific binding)]x100. The IC50 value was then obtained by fitting the percent inhibition data to a sigmoidal dose-response (4 parameter logistic) model in the XLfit® software Excel add-in program [from ID Business Solutions Ltd., model 205, where F(x)=(A+(B−A)/(1+((C/x)^D)))].

For O=C(O)Cn1ncc2c1CCC[C@H]2NS(=O)(=O)c1cc(F)c(Oc2ccc(F)cc2)cc1Cl [Example 5-6a, {(R)-4-[2-Chloro-5-fluoro-4-(4-fluoro-phenoxy)-benzenesulfonylamino]-4,5,6,7-tetrahydro-indazol-1-yl}-acetic acid], the IC50 was 52.9 nM.

Work on O=C(O)CCn1ncc2c1CCC[C@H]2NS(=O)(=O)c1ccc(Oc2ccccc2Cl)c(Cl)c1 [Example 5-7a, 3-{(R)-4-[3-Chloro-4-(2-chloro-phenoxy)-benzenesulfonylamino]-4,5,6,7-tetrahydro-indazol-1-yl}-propionic acid] yielded an IC50 of 53 nM.

CN([C@@H]1CCCc2c1cnn2CC(=O)O)S(=O)(=O)c1cnc(Oc2ccc(Cl)cc2)c(Br)c1 [Example 6-1a, ((R)-4-{[5-Bromo-6-(4-chloro-phenoxy)-pyridine-3-sulfonyl]-methyl-amino}-4,5,6,7-tetrahydro-indazol-1-yl)-acetic acid] was tested, and the IC50 was 4 nM.

For CN([C@@H]1CCCc2c1cnn2CC(=O)O)S(=O)(=O)c1cnc(Oc2ccccc2Cl)c(Br)c1 [Example 6-2a, ((R)-4-{[5-Bromo-6-(2-chloro-phenoxy)-pyridine-3-sulfonyl]-methyl-amino}-4,5,6,7-tetrahydro-indazol-1-yl)-acetic acid], the IC50 was 6.6 nM.

CN([C@@H]1CCCc2c1cnn2CC(=O)O)S(=O)(=O)c1cnc(Oc2cc(Cl)cc(Cl)c2)c(Br)c1 [Example 6-3a, ((R)-4-{[5-Bromo-6-(3,5-dichloro-phenoxy)-pyridine-3-sulfonyl]-methyl-amino}-4,5,6,7-tetrahydro-indazol-1-yl)-acetic acid] showed an IC50 of 26.5 nM.

With CN([C@@H]1CCCc2c1cnn2CC(=O)O)S(=O)(=O)c1cnc(Oc2ccc(Cl)cc2Cl)c(Br)c1 [Example 6-4a, ((R)-4-{[5-Bromo-6-(2,4-dichloro-phenoxy)-pyridine-3-sulfonyl]-methyl-amino}-4,5,6,7-tetrahydro-indazol-1-yl)-acetic acid] the IC50 was 4.6 nM.

For CN([C@@H]1CCCc2c1cnn2CC(=O)O)S(=O)(=O)c1cnc(Oc2cc(Cl)ccc2Cl)c(Br)c1 [Example 6-5a, ((R)-4-{[5-Bromo-6-(2,5-dichloro-phenoxy)-pyridine-3-sulfonyl]-methyl-amino}-4,5,6,7-tetrahydro-indazol-1-yl)-acetic acid], the IC50 was 4.9 nM.

CN([C@@H]1CCCc2c1cnn2CC(=O)O)S(=O)(=O)c1cnc(Oc2ccc(F)cc2Cl)c(Br)c1 [Example 6-6a, ((R)-4-{[5-Bromo-6-(2-chloro-4-fluoro-phenoxy)-pyridine-3-sulfonyl]-methyl-amino}-4,5,6,7-tetrahydro-indazol-1-yl)-acetic acid] gave an IC50 of 6.8 nM.

For CN([C@@H]1CCCc2c1cnn2CC(=O)O)S(=O)(=O)c1cnc(Oc2ccc(F)cc2F)c(Br)c1 [Example 6-7a, ((R)-4-{[5-Bromo-6-(2,4-difluoro-phenoxy)-pyridine-3-sulfonyl]-methyl-amino}-4,5,6,7-tetrahydro-indazol-1-yl)-acetic acid], the IC50 was 6.2 nM.

In the case of CN([C@@H]1CCCc2c1cnn2CC(=O)O)S(=O)(=O)c1cnc(Oc2cccc(Cl)c2)c(Br)c1 [Example 6-8a, ((R)-4-{[5-Bromo-6-(3-chloro-phenoxy)-pyridine-3-sulfonyl]-methyl-amino}-4,5,6,7-tetrahydro-indazol-1-yl)-acetic acid], the IC50 is reported as 11.9 nM.

Work on CN([C@@H]1CCCc2c1cnn2CC(=O)O)S(=O)(=O)c1cnc(Oc2ccc(Cl)cc2F)c(Br)c1 [Example 6-9a, ((R)-4-{[5-Bromo-6-(4-chloro-2-fluoro-phenoxy)-pyridine-3-sulfonyl]-methyl-amino}-4,5,6,7-tetrahydro-indazol-1-yl)-acetic acid] yielded an IC50 of 7.1 nM.

Compound CN([C@@H]1CCCc2c1cnn2CC(=O)O)S(=O)(=O)c1cnc(Oc2ccc(Cl)c(F)c2)c(Br)c1 [Example 6-10a, ((R)-4-{[5-Bromo-6-(4-chloro-3-fluoro-phenoxy)-pyridine-3-sulfonyl]-methyl-amino}-4,5,6,7-tetrahydro-indazol-1-yl)-acetic acid] has an IC50 of 18.7 nM.

Work on CC(C)c1ccc(Oc2ncc(S(=O)(=O)N(C)[C@@H]3CCCc4c3cnn4CC(=O)O)cc2Br)cc1 [Example 6-11a, ((R)-4-{[5-Bromo-6-(4-isopropyl-phenoxy)-pyridine-3-sulfonyl]-methyl-amino}-4,5,6,7-tetrahydro-indazol-1-yl)-acetic acid] yielded an IC50 of 8.8 nM.

Compound CN([C@@H]1CCCc2c1cnn2CC(=O)O)S(=O)(=O)c1cnc(Oc2ccc(F)cc2)c(Br)c1 [Example 6-12a, ((R)-4-{[5-Bromo-6-(4-fluoro-phenoxy)-pyridine-3-sulfonyl]-methyl-amino}-4,5,6,7-tetrahydro-indazol-1-yl)-acetic acid] has an IC50 of 8.4 nM.

In the case of COc1cc(F)ccc1Oc1ncc(S(=O)(=O)N(C)[C@@H]2CCCc3c2cnn3CC(=O)O)cc1Br [Example 6-13a, ((R)-4-{[5-Bromo-6-(4-fluoro-2-methoxy-phenoxy)-pyridine-3-sulfonyl]-methyl-amino}-4,5,6,7-tetrahydro-indazol-1-yl)-acetic acid], the IC50 is reported as 6.5 nM.

CN([C@@H]1CCCc2c1cnn2CC(=O)O)S(=O)(=O)c1cnc(Oc2ccc(C#N)cc2)c(Br)c1 [Example 6-14a, ((R)-4-{[5-Bromo-6-(4-cyano-phenoxy)-pyridine-3-sulfonyl]-methyl-amino}-4,5,6,7-tetrahydro-indazol-1-yl)-acetic acid] showed an IC50 of 8.2 nM.

With CC(C)c1cc(S(=O)(=O)N(C)[C@@H]2CCCc3c2cnn3CC(=O)O)cnc1Oc1ccc(Cl)cc1 [Example 7-1a, ((R)-4-{[6-(4-Chloro-phenoxy)-5-isopropyl-pyridine-3-sulfonyl]-methyl-amino}-4,5,6,7-tetrahydro-indazol-1-yl)-acetic acid] the IC50 was 12.1 nM.

CN([C@@H]1CCCc2c1cnn2CC(=O)O)S(=O)(=O)c1cnc(Oc2ccc(Cl)cc2)c(C2(C)CC2)c1 [Example 8-1a, ((R)-4-{[6-(4-Chloro-phenoxy)-5-(1-methyl-cyclopropyl)-pyridine-3-sulfonyl]-methyl-amino}-4,5,6,7-tetrahydro-indazol-1-yl)-acetic acid] was tested, and the IC50 was 14.5 nM.

For CN([C@@H]1CCCc2c1cnn2CC(=O)O)S(=O)(=O)c1ccc(Oc2ccccc2Cl)c(Cl)c1 [Example 9-1a, ((R)-4-{[3-Chloro-4-(2-chloro-phenoxy)-benzenesulfonyl]-methyl-amino}-4,5,6,7-tetrahydro-indazol-1-yl)-acetic acid], the IC50 was 5.5 nM.

CN([C@@H]1CCCc2c1cnn2CC(=O)O)S(=O)(=O)c1ccc(Oc2cccc(Cl)c2)c(Cl)c1 [Example 9-2a, ((R)-4-{[3-Chloro-4-(3-chloro-phenoxy)-benzenesulfonyl]-methyl-amino}-4,5,6,7-tetrahydro-indazol-1-yl)-acetic acid] showed an IC50 of 12.2 nM.

CN([C@@H]1CCCc2c1cnn2CC(=O)O)S(=O)(=O)c1ccc(Oc2ccc(Cl)cc2)c(Cl)c1 [Example 9-3a, ((R)-4-{[3-Chloro-4-(4-chloro-phenoxy)-benzenesulfonyl]-methyl-amino}-4,5,6,7-tetrahydro-indazol-1-yl)-acetic acid] gave an IC50 of 11.1 nM.

CN([C@@H]1CCCc2c1cnn2CC(=O)O)S(=O)(=O)c1ccc(Oc2ccc(Cl)cc2)cc1Cl [Example 9-4a, ((R)-4-{[2-Chloro-4-(4-chloro-phenoxy)-benzenesulfonyl]-methyl-amino}-4,5,6,7-tetrahydro-indazol-1-yl)-acetic acid] showed an IC50 of 37.1 nM.
